Experimental data taken from ChEMBL document CHEMBL3098048, “TMEDA-derived biscationic amphiphiles: An economical preparation of potent antibacterial agents” (2014).

Assays:
Format in all cases: functional
Staphylococcus aureus = experiment: Antibacterial activity against Staphylococcus aureus SH1000 assessed as growth inhibition after 72 hrs by broth microdilution method; details: SH1000, 72 h
Escherichia coli = experiment: Antibacterial activity against Escherichia coli MC4100 assessed as growth inhibition after 72 hrs by broth microdilution method; details: MC4100, 72 h
Pseudomonas aeruginosa = experiment: Antibacterial activity against wild-type Pseudomonas aeruginosa PAO1 assessed as growth inhibition after 72 hrs by broth microdilution method; details: PAO1, 72 h
Enterococcus faecalis = experiment: Antibacterial activity against Enterococcus faecalis OG1RF assessed as growth inhibition after 72 hrs by broth microdilution method

SMILES	MIC (Staphylococcus aureus) [µM]	MIC (Escherichia coli) [µM]	MIC (Pseudomonas aeruginosa) [µM]	MIC (Enterococcus faecalis) [µM]
CCCCCCCCCCCCCCCCCC[N+](C)(C)CC[N+](C)(C)CCCCCCCC	2	8	32	2
CCCCCCCCCCCC[N+](C)(C)CC[N+](C)(C)CCCCCCCCCC	1	2	2	2
CCCCCCCCCCCC[N+](C)(C)CC[N+](C)(C)CCCCCCCC	1	4	4	4
CCCCCCCCCC[N+](C)(C)CC[N+](C)(C)CCCCCCCC	8	63	125	63
CCCCCCCC[N+](C)(C)CC[N+](C)(C)CCCCCCCC	32	250	500	500
CCCCCCCCCCCCC[N+](C)(C)CC[N+](C)(C)CCCCCCCCCC	1	2	2	1
CCCCCCCCCCC[N+](C)(C)CC[N+](C)(C)CCCCCCCCCC	1	4	4	4
CCCCCCCCCCCCCCCCCCCC[N+](C)(C)CCN(C)C	4	63	125	4
CCCCCCCCCCCCCCCCCC[N+](C)(C)CCN(C)C	2	63	63	4
CCCCCCCCCCCCCCCC[N+](C)(C)CCN(C)C	1	16	16	16
CCCCCCCCCCCCCC[N+](C)(C)CCN(C)C	2	16	125	8
CCCCCCCCCCCC[N+](C)(C)CCN(C)C	32	63	250	63
CCCCCCCCCC[N+](C)(C)CCN(C)C	63	250	250	250
CCCCCCCC[N+](C)(C)CCN(C)C	> 1000	> 1000	> 1000	> 1000
CCCCCCCCCCCCCCCCCCCC[N+](C)(C)CC[N+](C)(C)CCCCCCCCCCCCCCCC	16	63	63	32
CCCCCCCCCCCCCCCCCCCC[N+](C)(C)CC[N+](C)(C)CCCCCCCCCCCCCC	8	16	63	16
CCCCCCCCCCCCCCCCCCCC[N+](C)(C)CC[N+](C)(C)CCCCCCCCCCCC	8	32	63	4
CCCCCCCCCCCCCCCCCCCC[N+](C)(C)CC[N+](C)(C)CCCCCCCCCC	4	16	16	16

SMILES	MIC (Staphylococcus aureus) [µM]	MIC (Escherichia coli) [µM]	MIC (Pseudomonas aeruginosa) [µM]	MIC (Enterococcus faecalis) [µM]
CCCCCCCCCCCCCCCCCCCC[N+](C)(C)CC[N+](C)(C)CCCCCCCC	4	16	32	4
CCCCCCCCCCCCCCCCCC[N+](C)(C)CC[N+](C)(C)CCCCCCCCCCCCCCCCCC	32	250	500	63
CCCCCCCCCCCCCCCCCC[N+](C)(C)CC[N+](C)(C)CCCCCCCCCCCCCCCC	16	32	63	32
CCCCCCCCCCCCCCCCCC[N+](C)(C)CC[N+](C)(C)CCCCCCCCCCCCCC	8	16	63	16
CCCCCCCCCCCCCCCCCC[N+](C)(C)CC[N+](C)(C)CCCCCCCCCCCC	4	16	32	4
CCCCCCCCCCCCCCCCCC[N+](C)(C)CC[N+](C)(C)CCCCCCCCCC	4	16	32	2
CCCCCCCCCCCCCCCC[N+](C)(C)CC[N+](C)(C)CCCCCCCCCCCCCCCC	8	32	63	8
CCCCCCCCCCCCCCCC[N+](C)(C)CC[N+](C)(C)CCCCCCCCCCCCCC	8	16	63	2
CCCCCCCCCCCCCCCC[N+](C)(C)CC[N+](C)(C)CCCCCCCCCCCC	8	8	32	4
CCCCCCCCCCCCCCCC[N+](C)(C)CC[N+](C)(C)CCCCCCCCCC	4	8	32	4
CCCCCCCCCCCCCCCC[N+](C)(C)CC[N+](C)(C)CCCCCCCC	2	2	4	2
CCCCCCCCCCCCCC[N+](C)(C)CC[N+](C)(C)CCCCCCCCCCCCCC	4	4	32	2
CCCCCCCCCCCCCC[N+](C)(C)CC[N+](C)(C)CCCCCCCCCCCC	1	2	8	2
CCCCCCCCCCCCCC[N+](C)(C)CC[N+](C)(C)CCCCCCCCCC	4	2	4	1
CCCCCCCCCCCCCC[N+](C)(C)CC[N+](C)(C)CCCCCCCC	1	2	4	2
CCCCCCCCCCCC[N+](C)(C)CC[N+](C)(C)CCCCCCCCCCCC	1	2	4	1
CCCCCCCCCC[N+](C)(C)CC[N+](C)(C)CCCCCCCCCC	2	16	8	8
